Assay results reported in article PMC9699003, “Arene Variation of Highly Cytotoxic Tridentate Naphthoquinone-Based Ruthenium(II) Complexes and In-Depth In Vitro Studies” (Pharmaceutics, 2022).
Read-outs that look alike come from different tables or passages of the source.

Tests used:
[1] = system: CH1/PA-1 ovarian teratocarcinoma cells; conditions: CH1/PA-1, MTT, 96 h exposure; cited from earlier work
[2] = system: SW480 colon carcinoma cells; conditions: SW480, MTT, 96 h exposure; cited from earlier work
[3] = system: A549 non-small cell lung cancer cells; conditions: A549, MTT, 96 h exposure; cited from earlier work
[4] = system: A549 non-small cell lung cancer cells; experiment: MTT assay (cytotoxicity); assay type: cell-based, human; conditions: 96 h exposure
Procedure: (§1) CH1/PA-1 ovarian teratocarcinoma cells (provided by L. R. Kelland, CRC Centre for Cancer Therapeutics, Institute of Cancer Research, Sutton, UK; confirmed by STR profiling as PA-1 ovarian teratocarcinoma cells at Multiplexion, Heidelberg, Germany), SW480 colon carcinoma and A549 non-small cell lung cancer cells (both obtained from the American Type Culture Collection, Manassas, VA, USA) were grown as adherent cultures in 75 cm² culture flasks (CytoOne, Starlab, Hamburg, Germany) by using minimal essential medium (MEM) supplemented with 1 mM sodium pyruvate, 4 mM L-glutamine, 1% (v/v) nonessential amino acids from 100-fold stock (all purchased from Sigma-Aldrich) and 10% heat-inactivated fetal bovine serum (BioWest, Nuaillé, France). Cells were maintained under standard culture conditions with 5% CO2 at 37 °C in a humidified atmosphere.
(§2) The 3-(4,5-dimethylthiazol-2-yl)-2,5-diphenyl-2H-tetrazolium bromide (MTT, Acros Organics, Geel, Belgium) assay was used to detect the cytotoxicity of the compounds after 24 h and 96 h incubation. In brief, cells were harvested from culture flasks and the following cell numbers (each in 100 µL) were seeded into 96-well culture plates (CytoOne, tissue culture treated, Starlab, Hamburg, Germany) for 24 h incubation: 1 × 10^4 (CH1/PA-1), 1 × 10^4 (SW480) and 1.5 × 10^4 (A549) cells per well; and for 96 h incubation: 1 × 10^3 (CH1/PA-1), 2 × 10^3 (SW480) and 3 × 10^3 (A549) cells per well. After 24 h, cells resuming their exponential growth rate were treated with test compounds at nine concentrations obtained by serial two-fold dilution. Stock solutions were prepared in DMSO (20 mM or 40 mM) and diluted in supplemented MEM. An amount of 100 µL of each concentration was added to the plates in triplicates and cells were exposed for 24 or 96 h. Afterward, the medium was replaced with 100 µL of MTT solution (5 mg/mL) in phosphate-buffered saline (PBS, Sigma-Aldrich), diluted 1:7 in RPMI 1640 medium (supplemented with 4 mM L-glutamine and 10% heat-inactivated FBS). Upon cell-viability-dependent conversion of the yellow, water-soluble tetrazolium salt into purple formazan products for 4 h, the crystals were dissolved in 150 µL DMSO. The absorbance of the resulting solutions, which is directly proportional to the number of viable cells, was measured at 550 nm (and at 690 nm as a reference) with a microplate reader (ELx808, BioTek, Winoosky, VT, USA) and Gen5TM 3.08 software (BioTek). Blank-corrected optical densities were subjected to graphical evaluation and interpolation of IC50 values. At least three biologically and technically independent experiments were performed.

[5] = system: SW480 colon carcinoma cells; experiment: MTT assay (cytotoxicity); assay type: cell-based, human; conditions: 96 h exposure
Procedure: as §1, §2

[6] = system: CH1/PA-1 ovarian teratocarcinoma cells; experiment: MTT assay (cytotoxicity); assay type: cell-based, human; conditions: CH1/PA-1, MTT, 96 h exposure
Procedure: as §1, §2

N.N.O=C([O-])C1(C(=O)[O-])CCC1.[Pt+2] [Carboplatin]
IC50 [1]: 0.79 ± 0.11 µM | IC50 [2]: 42 ± 10 µM | IC50 [3]: 38 ± 3 µM

N.N.[Cl][Pt][Cl] [Cisplatin, reference compound]
IC50 [4]: 3.8 ± 1 µM | IC50 [5]: 2.3 ± 0.2 µM | IC50 [6]: 0.073 ± 0.001 µM

O=C1[O][Pt]2([NH][C@@H]3CCCC[C@H]3[NH]2)[O]C1=O [Oxaliplatin]
IC50 [1]: 0.18 ± 0.01 µM | IC50 [2]: 0.29 ± 0.05 µM | IC50 [3]: 0.98 ± 0.21 µM

[Cl][Ru][Cl].[Cl][Ru][Cl].c1ccccc1.c1ccccc1 [[Ru(benzene)Cl2]2]
IC50 [1]: > 100 µM | IC50 [2]: > 100 µM | IC50 [3]: > 100 µM

[Cl][Ru-]1[Cl+][Ru-]([Cl])[Cl+]1.c1ccc2c(c1)CCC2.c1ccc2c(c1)CCC2 [[Ru(indane)Cl2]2]
IC50 [1]: 51 ± 13 µM | IC50 [2]: 166 ± 35 µM | IC50 [3]: 257 ± 66 µM

Cc1ccccc1.Cc1ccccc1.[Cl][Ru-]1[Cl+][Ru-]([Cl])[Cl+]1 [[Ru(toluene)Cl2]2]
IC50 [1]: > 100 µM | IC50 [2]: > 100 µM | IC50 [3]: > 100 µM
